Consider six compounds from US20140094512A1, “METHOD OF MODULATING THE DEGREE OF ADIPOSE TISSUE DEPOSITED INTRAMUSCULARLY” (priority 2012, published 2014).

For assay [1], the system named is 3T3-L1 preadipocyte. Put plainly: retinoic acid induced inhibition of 3T3-L1-preadipocyte differentiation, Oil Red O staining of lipid droplets. The conditions noted are these: for Oil Red O absorbance (OD minus blank), well1 / Oil Red O absorbance (OD minus blank), well2 / Oil Red O absorbance (OD minus blank), average: OD 492 nm; for Oil Red O absorbance (OD minus blank), well1 / Oil Red O absorbance (OD minus blank), well2: day 9; for Oil Red O absorbance (OD minus blank), average: day 9, control average 0.5263. The class given is cell-based, mouse. As for the experimental part: The effectiveness of the RAR alpha antagonists Compounds No. 2, 3 and 4 and the RAR pan antagonist Compound No. 1 in blocking the inhibitory effect of all-trans retinoic acid (ATRA) on 3T3-L1 preadipocyte differentiation was investigated.
In this experiment the “Oil Red O”-staining of lipid droplets is used as indicator of the degree of adipogenesis. After conveniently extraction of the dye from the lipid droplets the absorbance was measured with a microplate reader.
3T3-L1-cells (passage 7) of one flask (75 cm^2) were trypsinized by treating the adherent cells with 2 ml 0.25% Trypsin-EDTA. The reaction was stopped with fibroblast growth medium (DMEM/10% Newborn Calf Serum/1% Penicillin/Streptomycin) and 1 ml of this cellsuspension were added to each well of a 12-well-plate. Cells were incubated at 37° C./5% CO2 in an incubator.
One day after cells reach confluency the fibroblast growth medium was removed and adipogenesis initiation medium (DMEM/10% FBS/1 μM Dexamethasone/0.5 mM IBMX/1 μg/ml Insulin) was added into 2 wells (i.e., in duplicate) without further substances (control), into 2 wells with 0.1 μM ATRA+ alternative 1 μM of compound No. 4, Compound No. 2, Compound No. 3 and 1 into 2 wells with 0.1 μM ATRA.
After incubation for two days, the adipogenesis initiation medium was removed and 1.5 ml adipogenesis medium (DMEM/10% FBS/1 μg/ml Insulin) containing the substances as indicated above was added per well. After another three days of incubation, the medium was replaced by adipogenesis medium without any additional substances. The culture medium was replaced every 2 or 3 days.
Nine days after addition of adipogenesis initiation medium, the medium was removed from all wells. Cells were fixed and stained with Oil Red O as follows:
Fix the cells in 10% formalin in PBS, remove formalin, dry completely, wash with PBS, dry at room temperature; Prepare Oil red O working solution by diluting 3 parts Oil Red O stock solution with 2 parts dH2O; Add Oil red O working solution for 1 hour; Remove all Oil Red O and immediately add dH2O, wash with dH2O until water is colourless; Wash with 60% isopropanol, dry completely at room temperature; elute Oil red O by adding 60% isopropaniol/4% Triton X-100 solution for 1.5 hours; transfer to 96 well plate; measure absorption (optical density—OD) at 492 nm (Tecan Spectraflour plus)
The absorbance is reported in Table 2 and FIG. 1 as the difference of the observed OD of extracted dye at 492 nm and a blank well OD value.

The subject of assay [2] is bovine SVF cells. Put plainly: retinoic acid induced inhibition of the differentiation of bovine SVF cells to adipocytes, Oil Red O staining. The conditions noted are these: for lipid accumulation compared with control cells / Oil Red O absorbance (OD minus blank), well1 / Oil Red O absorbance (OD minus blank), well2 / Oil Red O absorbance (OD minus blank), average: bovine SVF cells; for Oil Red O absorbance (OD minus blank), well1 / Oil Red O absorbance (OD minus blank), well2 / Oil Red O absorbance (OD minus blank), average: OD 530 nm, day 13; for Oil Red O absorbance (OD minus blank), average: control average 0.4465. Format: cell-based. As to the method: The efficiency of the RAR antagonists compounds No. 1, 3, 4 and 5 in blocking the antiadipogenic effect of ATRA on bovine cells was investigated. The cells used in this experiment were from a primary culture of the stromal-vascular fraction isolated from intramuscular fat of an Angus steer.
To assess the adipocyte differentiation state, the cells of a 12-well plate were stained with “Oil Red O” and after conveniently extraction of the dye from the lipid droplets the absorbance was measured with a microplate reader.
Cells of a bovine stromal-vascular fraction from intramuscular fat (passage 4) of one flask (75 cm^2) were trypsinized by treating the adherent cells with 2 ml 0.25% Trypsin-EDTA. The reaction was stopped with growth medium (DMEM, 1% (v/v) of antibiotic solution, 50 μg/ml gentamicin sulfate, 33 μM biotin, 17 μM D-pantothenate, 100 μM (+)-sodium L-ascorbate and 10% FCS heat inactivated) and 1.5 ml of this cell suspension were added to each well of a 12-well-plate. Cells were incubated at 37° C./5% CO2 in an incubator.
One day after cells reach confluency the growth medium was removed and adipogenesis initiation medium (growth medium/0.25 μM Dexamethasone/10 μg/ml Insulin/1 μM rosiglitazone) was added into 2 wells (i.e., in duplicate) without further compounds. Adipogenesis initiation medium additionally containing 0.1 μM ATRA was added into 2 wells without further compounds and alternative with 1 μM of compound No. 1, compound No. 3, compound No. 4 and compound No. 5 into 2 wells each of the 12-well plate.
After incubation for three days, the adipogenesis initiation medium was removed and 1.5 ml adipogenesis medium (growth medium/10 μg/ml Insulin/1 μM rosiglitazone) containing the substances as indicated above was added per well. The culture medium was replaced twice a week.
Thirteen days after addition of adipogenesis initiation medium the medium was removed and cells of the 12-well plate were fixed and stained with Oil Red O as previously described.
The absorbance is reported in Table 3 and FIG. 2 as the difference of the observed OD of extracted dye at 530 nm and a blank well OD value.

Assay [3] concerns the target T1, RARβ (Homo sapiens, UniProt P10826).
T1 sequence (P10826 1-455): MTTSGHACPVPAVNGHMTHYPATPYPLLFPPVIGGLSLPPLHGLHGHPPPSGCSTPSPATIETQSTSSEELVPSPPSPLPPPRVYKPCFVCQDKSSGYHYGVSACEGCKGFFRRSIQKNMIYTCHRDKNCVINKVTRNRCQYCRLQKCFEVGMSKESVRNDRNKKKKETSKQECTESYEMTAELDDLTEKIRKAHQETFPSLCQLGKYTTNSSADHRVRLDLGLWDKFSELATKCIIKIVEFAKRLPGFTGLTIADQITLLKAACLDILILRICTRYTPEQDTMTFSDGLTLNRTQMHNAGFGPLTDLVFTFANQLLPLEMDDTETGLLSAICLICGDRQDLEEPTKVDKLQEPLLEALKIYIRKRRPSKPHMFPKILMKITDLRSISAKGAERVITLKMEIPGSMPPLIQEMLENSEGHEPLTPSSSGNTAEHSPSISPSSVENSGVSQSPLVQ
Put plainly: luciferase based RA responsive reporter assay, RARβ. The class given is cell-based. The conditions noted are these: antagonist. In general terms: In a reporter assay the amount or activity of a reporter protein is the signal.

The target in assay [4] is T2, RARα (Homo sapiens, UniProt P10276).
T2 sequence (P10276 1-462): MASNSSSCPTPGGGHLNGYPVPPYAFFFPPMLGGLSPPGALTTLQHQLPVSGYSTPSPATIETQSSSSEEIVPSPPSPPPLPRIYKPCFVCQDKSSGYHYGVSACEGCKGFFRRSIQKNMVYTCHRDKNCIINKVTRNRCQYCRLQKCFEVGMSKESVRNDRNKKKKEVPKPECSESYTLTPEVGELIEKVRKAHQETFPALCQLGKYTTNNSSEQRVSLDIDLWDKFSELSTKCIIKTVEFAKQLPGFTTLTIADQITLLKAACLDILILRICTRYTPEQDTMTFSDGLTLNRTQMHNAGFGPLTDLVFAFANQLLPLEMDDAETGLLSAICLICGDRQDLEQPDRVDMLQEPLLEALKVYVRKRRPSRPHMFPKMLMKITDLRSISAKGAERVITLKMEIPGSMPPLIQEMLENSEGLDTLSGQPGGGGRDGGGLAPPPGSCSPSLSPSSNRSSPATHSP
The experiment in a line: luciferase based RA responsive reporter assay, RARα. Format: cell-based. The conditions noted are these: antagonist.

Assay [5] addresses T3, RARγ (Homo sapiens, UniProt P13631).
T3 sequence (P13631 1-454): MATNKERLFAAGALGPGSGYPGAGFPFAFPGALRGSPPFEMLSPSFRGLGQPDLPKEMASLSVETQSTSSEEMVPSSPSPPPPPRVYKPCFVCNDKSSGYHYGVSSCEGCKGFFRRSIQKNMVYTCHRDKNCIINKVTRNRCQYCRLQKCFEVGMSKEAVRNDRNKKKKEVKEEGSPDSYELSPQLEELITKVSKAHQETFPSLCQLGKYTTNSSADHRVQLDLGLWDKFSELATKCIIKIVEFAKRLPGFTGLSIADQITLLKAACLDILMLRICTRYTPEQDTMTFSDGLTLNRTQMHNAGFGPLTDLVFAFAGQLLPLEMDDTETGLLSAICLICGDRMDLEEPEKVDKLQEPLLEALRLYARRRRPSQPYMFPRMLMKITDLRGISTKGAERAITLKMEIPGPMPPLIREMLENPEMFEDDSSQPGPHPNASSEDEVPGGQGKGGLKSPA
Put plainly: luciferase based RA responsive reporter assay, RARγ. The class given is cell-based. The conditions noted are these: antagonist.

Assay [6] has as its system RARs. The experiment in a line: agonistic activity on RARs. The class given is cell-based.

Take `Cc1ccc(C2=CCC(C)(C)c3ccc(C#Cc4ccc(C(=O)O)cc4)cc32)cc1` [Compound No. 1]: in assay [1] (1 μM compound + 0.1 μM ATRA), the “Oil Red O absorbance (OD minus blank), well1” value turned out to be 0.1736; the “Oil Red O absorbance (OD minus blank), well2” value came out at 0.1792; the “Oil Red O absorbance (OD minus blank), average” value stood at 0.1764. Moreover, in assay [2] (1 μM compound + 0.1 μM ATRA), the “lipid accumulation compared with control cells” value is “lipid accumulation of control cells is not reached”; the “Oil Red O absorbance (OD minus blank), well1” value came out at 0.2849; the “Oil Red O absorbance (OD minus blank), well2” value is 0.3493; the “Oil Red O absorbance (OD minus blank), average” value is 0.3171.

As to `CC1(C)CC=C(c2cnc3ccccc3c2)c2cc(C(=O)Nc3ccc(C(=O)O)cc3)ccc21` [Compound No. 3], in assay [1] (1 μM compound + 0.1 μM ATRA), the “Oil Red O absorbance (OD minus blank), well1” value was 0.3589; the “Oil Red O absorbance (OD minus blank), well2” value is recorded as 0.2996; the “Oil Red O absorbance (OD minus blank), average” value came to 0.3293. Besides, in assay [2] (1 μM compound + 0.1 μM ATRA), the “lipid accumulation compared with control cells” value is “lipid accumulation of control cells is not reached”; the “Oil Red O absorbance (OD minus blank), well1” value amounted to 0.3504; the “Oil Red O absorbance (OD minus blank), well2” value turned out to be 0.4044; the “Oil Red O absorbance (OD minus blank), average” value turned out to be 0.3774.

For the compound `CN1c2cc3c(cc2N=C(c2ccc(C(=O)O)cc2)c2ccc4ccccc4c21)C(C)(C)CCC3(C)C` [Compound No. 5], in assay [2] (1 μM compound + 0.1 μM ATRA), the “lipid accumulation compared with control cells” value is on record as “lipid accumulation of control cells is not reached”; the “Oil Red O absorbance (OD minus blank), well1” value stood at 0.2915; the “Oil Red O absorbance (OD minus blank), well2” value is given as 0.3318; the “Oil Red O absorbance (OD minus blank), average” value is on record as 0.3117.

For `Cc1ccc(C2=CC(C)(C)Oc3c(Br)cc(C(=O)Nc4ccc(C(=O)O)cc4)cc32)cc1` [Compound No. 4, 4-[[8-bromo-2,2-dimethyl-4-(p-tolyl)chromene-6-carbonyl]amino]benzoic acid], the values for the IC50 in assay [3], in assay [4] and in assay [5] were 2980 nM, 4 nM and 2350 nM, respectively. Further, the “agonistic activity on RARs” value in assay [6] is given as “lacks any significant agonistic activity”. Besides, the “Oil Red O absorbance (OD minus blank), well1” value in assay [1] (1 μM compound + 0.1 μM ATRA) turned out to be 0.3361; in assay [2] (1 μM compound + 0.1 μM ATRA), 0.5411. In addition, the “Oil Red O absorbance (OD minus blank), well2” value in assay [1] (1 μM compound + 0.1 μM ATRA) is on record as 0.3571; in assay [2] (1 μM compound + 0.1 μM ATRA), 0.6229. For the same compound, the “Oil Red O absorbance (OD minus blank), average” value in assay [1] (1 μM compound + 0.1 μM ATRA) came to 0.3466; in assay [2] (1 μM compound + 0.1 μM ATRA), 0.5820.

For `Cc1ccc(C2=CC(C)(C)Oc3c(Br)cc(C(=O)Nc4cc(F)c(C(=O)O)c(F)c4)cc32)cc1` [Compound No. 2], in assay [1] (1 μM compound + 0.1 μM ATRA), the “Oil Red O absorbance (OD minus blank), well1” value is 0.2264; the “Oil Red O absorbance (OD minus blank), well2” value stood at 0.2267; the “Oil Red O absorbance (OD minus blank), average” value stood at 0.2266.

For `CC1=C(/C=C/C(C)=C/C=C/C(C)=C/C(=O)O)C(C)(C)CCC1` [ATRA, all-trans retinoic acid], in assay [1] (ATRA 0.1 μM alone), the “amount of differentiated lipid-containing adipocytes” value is “significantly reduced”; the “Oil Red O absorbance (OD minus blank), well1” value was 0.0925; the “Oil Red O absorbance (OD minus blank), well2” value turned out to be 0.0727; the “Oil Red O absorbance (OD minus blank), average” value is given as 0.0826. In addition, in assay [2] (ATRA 0.1 μM alone), the “Oil Red O absorbance (OD minus blank), well1” value is listed as 0.1409; the “Oil Red O absorbance (OD minus blank), well2” value came to 0.1924; the “Oil Red O absorbance (OD minus blank), average” value came out at 0.1667. For the same compound, the “amount of Oil Red O stainable lipid droplets” value in assay [2] (ATRA 0.1 μM alone, bovine cells) is “clearly decreased”.
